Assay type in all cases: in vivo, mouse
Assay [1] relates to skull and foramen magnum of Fgfr3^Y367C/+ mice. As to the kind of experiment: Fgfr3Y367C/+ mice: skull and foramen magnum (calipers, microCT), grade of synchondroses. The arrangement: source data of Figure 3I (sheet "3I"): grade of synchondroses: scale not given here. On the procedure:
Another hallmark of ACH that is observed in Fgfr3^Y367C/+ mice is change in the size and shape of the skull and foramen magnum ([28]). The size of the foramen magnum is of particular clinical importance, as its reduced size can cause compression of the brain stem and spinal cord, resulting in significant morbidity and mortality in infants with ACH ([37]–[40]). To study the effects of TYRA-300 on the skull and foramen magnum in Fgfr3^Y367C/+ mice, macroscopic analyses were performed and μCT images were taken of the mice at the end of study. Changes in the shape of the skull are visible on μCT images in TYRA-300–treated Fgfr3^Y367C/+ mice compared with vehicle-treated Fgfr3^Y367C/+ mice (Figure 3A). […] The skull was further analyzed using the μCT images, which enabled measurement of the anteroposterior length and nasio-occipital length of the skull.
The μCT images also indicate that treatment with TYRA-300 modified the synchondroses at the base of the skull (Figure 3, I and J). […] Overall, the improvement in the size and shape of the foramen magnum with TYRA-300 has important clinical implications for foramen magnum stenosis.
(§1) Whole body x-ray images were taken of all animals by Faxitron specimen radiography MX-20 (Faxitron X-Ray LLC) following terminal sacrifice. The length of the L4–L6 lumbar vertebra segment was also measured for each animal using calipers, and the height of the L5 vertebral body was measured from Alcian blue/Sirius red images. Long bones and the skull were then excised, and their dimensions were measured using calipers (VWRi819-0013, VWR International). The transverse and sagittal diameters of the foramen magnum were also measured using calipers for the Fgfr3^Y367/+ model, and measured using the μCT images for the Fgfr3^N534K/+ model.
(§2) The heads of all mice were isolated, and skin was stripped before being placed in 70% ethanol at 4°C. μCT images of the skulls were measured on the Skyscan-1272 (Bruker) with the following parameters: 10 μm resolution, 680 ms exposure, 70 kV, 142 μA, and 0.350° rotation step. The μCT data were analyzed using DataViewer and CTAn software (version 1.20.8) to perform postprocessing techniques in 3D. The nasio-occipital length and anteroposterior length of the skull were measured using 2D μCT images.

Assay [2] deals with foramen magnum of Fgfr3^N534K/+ mice. As to the kind of experiment: Fgfr3N534K/+ mice: microCT of foramen magnum, grade of synchondroses. Details: key to grade of synchondroses after treatment: I: border of synchondroses were completely separated; II: clear separation of synchondroses with some areas suspicious for bone bridging; III: synchondroses showing bony bridge between 2 borders; IV: completely fused synchondroses with remnants of margin (cartilage); V: completely fused synchondroses; source data of Figure 5C (sheet "5C"): grade of synchondroses: scale not given here. As to the method:
Finally, to confirm the effects of TYRA-300 on the axial skeleton in Fgfr3^N534K/+ mice, μCT imaging of the foramen magnum was performed at the end of treatment.
as §1, §2

The subject of assay [3] is lumbar vertebrae of Fgfr3^Y367C/+ mice. The assay is described as follows: Fgfr3Y367C/+ mice: lumbar vertebrae and intervertebral discs (calipers, histology). To be noted: 1.2 mg/kg s.c. daily for 15 days. As to the method:
Individuals with ACH frequently experience back pain and may undergo multiple spinal surgeries throughout their lives ([40]). Kyphosis and scoliosis are common with ACH and are also observed in the Fgfr3^Y367C/+ mouse model ([40]), and Fgfr3 is expressed in the intervertebral discs of Fgfr3^Y367C/+ mice ([28]). To determine how TYRA-300 affects the vertebrae and intervertebral discs, the spine was analyzed in the Fgfr3^Y367C/+ mice treated with TYRA-300 or vehicle.
as §1
The right femur and lumbar vertebrae segment L4–L6 were collected and fixed in 4% paraformaldehyde, decalcified with ethylenediaminetetraacetic acid (EDTA) 0.5 M (pH 8) for 2 or 3 weeks, and embedded in paraffin. Serial paraffin sections of 5 μm were stained with hematoxylin, eosin, and Safranin O. For immunohistochemistry, sections were labeled with antibodies against collagen type X (BIOCYC ref. [1]-CO097-05-RUO, 1:100 dilution), collagen type I (Novotec, 20151, dilution 1:1,000), pERK (Cell Signaling, 4370S, dilution 1:1,000), and PCNA (Abcam, GR3195972-6, 1:500 dilution) using the Dako Envision Kit. Images were captured with an Olympus PD70-IX2-UCB microscope and CellSens software (Olympus Life Science Solutions). Cells were counted using ImageJ software (NIH, Laboratory for Optical Computational Instrumentation).

Where [4] appears, read: 1.2 mg/kg s.c. daily for 15 days.
[5] abbreviates: 1.2 mg/kg s.c. daily for 15 days, macroscopic.
Where [6] appears, read: 1.2 mg/kg s.c. daily for 15 days, microCT.
Setting [7] is: 1.8 mg/kg daily for 21 days, microCT.

Several values for one entry are separate records, joined by “and”; a condition that tells them apart may be missing. Equal entries are not always repeated.

As for `C[C@@H](Oc1ccc2[nH]nc(-c3ccc(N4CC5(C4)CN(S(C)(=O)=O)C5)nc3)c2c1)c1c(Cl)cncc1Cl` [TYRA-300], in assay [1] (setting [4]), the “increase in sagittal diameter of the foramen magnum vs vehicle” value is on record as 9.28% and the “increase in transverse diameter of the foramen magnum vs vehicle” value came to 13.05%. Further, the “grade of synchondroses (intraoccipital synchondrosis anterior)” value in assay [1] (1.2 mg/kg s.c. daily for 15 days, all treated mice) is recorded as “II or III”. Also, in assay [1] (setting [5]), the “increase in skull length vs vehicle” value is 10.08% and the “increase in skull width vs vehicle” value was found to be 3.74%. Besides, in assay [1] (setting [6]), the “increase in anteroposterior length of the skull vs vehicle” value worked out at 8.92%, the “increase in area of the foramen magnum vs vehicle” value is 25.17% and the “increase in nasio-occipital length of the skull vs vehicle” value is listed as 7.87%. In assay [1] (Fgfr3Y367C/+ mice + TYRA-300, individual animal values), the “source data of Figure 3I (sheet "3I"): grade of synchondroses” value was 3 and 2.5. For the same molecule, in assay [2] (1.8 mg/kg daily for 21 days, data not shown), the “change in transverse diameter of the foramen magnum” value is listed as “not a statistically significant change”. In assay [2] (setting [7]), the “increase in area of the foramen magnum vs vehicle” value was 7.51% and the “increase in sagittal diameter of the foramen magnum vs vehicle” value came out at 6.35%. The “grade of synchondroses after treatment” value in assay [2] (1.8 mg/kg daily for 21 days, most mice, vehicle grade V) was “IV”. In addition, the “source data of Figure 5C (sheet "5C"): grade of synchondroses” value in assay [2] (Fgfr3N534K/+ mice + TYRA-300, individual animal values) is 5 and 4. Moreover, in assay [3], the “height of the vertebral bodies vs vehicle” value is on record as “increased the height of the vertebral bodies”; the “increase in L4-L6 lumbar vertebrae segment length vs vehicle” value came out at 23.49%; the “shape of the intervertebral disc” value was “decreasing the height and increasing the lateral width of the nucleus pulposus”.

For the origin of these results see PMC12128972, “TYRA-300, an FGFR3-selective inhibitor, promotes bone growth in two FGFR3-driven models of chondrodysplasia” (JCI Insight, 2025).
